# Source: patent US7598258B2, “Quinoline derivatives and quinazoline derivatives inhibiting autophosphorylation of macrophage colony stimulating factor receptor” (Kirin Beer Kabushiki Kaisha, priority 2002, dated 2009)
# Molecular target: T1, mouse c-fms (Mus musculus, UniProt P09581)
# T1 construct: Macrophage-like cell line BAC-1.2F5 which expresses c-fms as a M-CSF receptor on cell membranes; endogenous in cells; host or cells: BAC-1.2F5 mouse macrophage-like cell line
# T1 sequence (P09581 20-977): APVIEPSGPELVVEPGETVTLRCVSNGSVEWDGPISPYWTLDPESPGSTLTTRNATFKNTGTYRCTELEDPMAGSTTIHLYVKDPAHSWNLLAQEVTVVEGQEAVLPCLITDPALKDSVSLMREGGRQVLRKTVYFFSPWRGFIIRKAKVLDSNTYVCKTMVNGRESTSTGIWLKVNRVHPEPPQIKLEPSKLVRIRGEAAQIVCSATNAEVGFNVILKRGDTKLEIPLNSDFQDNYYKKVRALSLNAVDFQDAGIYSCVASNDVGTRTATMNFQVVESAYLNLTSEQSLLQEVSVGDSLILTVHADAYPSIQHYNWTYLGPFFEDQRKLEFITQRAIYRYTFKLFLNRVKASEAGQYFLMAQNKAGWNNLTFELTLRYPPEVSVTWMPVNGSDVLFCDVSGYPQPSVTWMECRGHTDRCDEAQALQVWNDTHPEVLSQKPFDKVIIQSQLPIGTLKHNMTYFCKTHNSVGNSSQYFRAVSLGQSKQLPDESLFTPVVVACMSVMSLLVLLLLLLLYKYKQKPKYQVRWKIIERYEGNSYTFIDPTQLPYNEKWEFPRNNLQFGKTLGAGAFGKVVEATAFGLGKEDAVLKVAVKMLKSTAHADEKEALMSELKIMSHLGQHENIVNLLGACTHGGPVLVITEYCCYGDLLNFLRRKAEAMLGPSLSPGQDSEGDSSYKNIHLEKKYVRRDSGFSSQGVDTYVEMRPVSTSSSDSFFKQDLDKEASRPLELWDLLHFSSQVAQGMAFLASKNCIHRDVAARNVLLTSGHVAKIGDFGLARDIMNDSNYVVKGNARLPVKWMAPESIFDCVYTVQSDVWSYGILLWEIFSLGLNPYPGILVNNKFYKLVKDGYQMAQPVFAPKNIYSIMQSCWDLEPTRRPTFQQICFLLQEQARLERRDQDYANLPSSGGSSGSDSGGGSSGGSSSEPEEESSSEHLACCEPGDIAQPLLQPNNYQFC
# Test: Inhibition of c-fms autophosphorylation in macrophage-like cell line BAC-1.2F5 by M-CSF stimulation (ELISA)
# Assay type: cell-based
# Settings: BAC-1.2F5 cells, human recombinant M-CSF 50 ng/ml, read-out: c-fms autophosphorylation 50% inhibitory concentration (IC50)
# Procedure: Macrophage-like cell line BAC-1.2F5 which expresses c-fms as a M-CSF receptor on cell membranes (CLAUDIA M. et al., J. Cell. Physiol., 130, 420-427 (1987), “Isolation and Characterization of a Cloned Growth Factor Dependent Macrophage Cell Line, BAC1.2F5”) was cultured at 37° C. in a DMEM medium containing L-cell supernatant and 10% fetal calf serum (GIBCO BRL) in a 5% CO2 incubator until about 50 to 70% confluent. The harvested cells were inoculated into wells, each containing the same medium, in a collagen type I coat 96-well flat-bottom plate in an amount of 5.0×10^4 per well, and cultured at 37° C. for 12 hr. Thereafter, the medium was replaced with a DMEM medium containing a 0.1% fetal calf serum and cultured for 12 hr. Thereafter, a test compound dissolved in dimethyl sulfoxide was added to each well, and cells were incubated at 37° C. for one hr. Human recombinant M-CSF was added to a final concentration of 50 ng/ml, and cells were stimulated at 37° C. for 6 min. After the medium was removed, 50 μl of a solubilization buffer (20 mM HEPES (pH 7.4), 150 mM NaCl, 0.2% Triton X-100, 10% glycerol, 5 mM sodium orthovanadylate, 5 mM disodium ethylenediaminetetraacetate, and 2 mM Na4P2O7) was added thereto. The mixture was shaken at 4° C. for 2 hr to prepare a cell extract as an assay sample which was then used for an ELISA assay.
# The plate for the ELISA assay was prepared as follows. Phosphate buffered saline (50 μl, pH 7.4) containing 5 μg/ml of anti-phospho-tyrosine antibody (PY20; Transduction Laboratories) was added to a microplate for ELISA (Maxisorp; purchased from NUNC), followed by standing at 4° C. overnight to be immobilized on the wells. Thereafter, each well was washed twice with 200 μl of a Ca- and Mg-free phosphate buffer containing 0.1% Tween-20 (hereinafter referred to as “PBS-T”), and 200 μl of a blocking solution (Dainippon Pharmaceutical Co. Ltd.: BlockAce) was added to each well, and the wells were then allowed to stand at room temperature for 2 hr for blocking.
# Separately, phosphate buffered saline (50 μl, pH 7.4) containing 5 μg/ml of anti-phospho-tyrosine antibody (PY20; Transduction Laboratories) was added to a microplate for ELISA (Maxisorp; purchased from NUNC), followed by standing at 4° C. overnight to form a solid phase on the wells. After washing of the plate, 300 μl of a blocking solution was added, followed by standing at room temperature for 2 hr to perform blocking. After washing, the whole quantity of the cell extract was transferred to the wells, and the plate was then allowed to stand at 4° C. overnight. After washing, anti-c-fms antiserum (Upstate Biotechnology, Inc.) was allowed to react at room temperature for one hr, and, after washing, a peroxidase-labeled anti-rabbit Ig antibody (Amersham) was allowed to react at room temperature for one hr. After washing, a chromophoric substrate for peroxidase (Sumitomo Bakelite Co., Ltd.) was added thereto to initiate a reaction. After a suitable level of color development, a reaction termination solution was added to stop the reaction, and the absorbance at 450 nm was measured with a microplate reader. The c-fms phosphorylation activity for each well was determined by presuming the absorbance without the addition of the test compound and with the addition of M-CSF to be 100% c-fms phosphorylation activity and the absorbance without the addition of the test compound and M-CSF to be 0% c-fms phosphorylation activity. The concentration of the test compound was varied on several levels, the c-fms phosphorylation inhibitory rate was determined for each case, and the concentration of the test compound necessary for inhibiting 50% of c-fms phosphorylation (IC50) was calculated.
row,Structure (SMILES),IC50 [nM]
1,"COc1cc2nccc(Oc3ccc(NC(=O)NC(C)c4ccc(F)cc4)c(C)c3C)c2cc1OC (stereo not shown) [Example 25, N-{4-[(6,7-Dimethoxy-4-quinolyl)oxy]-2,3-dimethylphenyl}-N′-[1-(4-fluorophenyl)ethyl]urea]",21.9
2,"COc1cc2nccc(Oc3ccc(NC(=O)N[C@@H](C)c4ccc(F)cc4)c(C)c3C)c2cc1OC [Example 26, N-{4-[(6,7-Dimethoxy-4-quinolyl)oxy]-2,3-dimethylphenyl}-N′-[(1S)-1-(4-fluorophenyl)ethyl]urea]",16.3
3,"COc1cc2nccc(Oc3ccc(NC(=O)NC(C)c4ccc(F)cc4)cc3F)c2cc1OC (stereo not shown) [Example 31, N-{4-[(6,7-Dimethoxy-4-quinolyl)oxy]-3-fluorophenyl}-N′-[1-(4-fluorophenyl)ethyl]urea]",12.9
4,"COc1cc2nccc(Oc3ccc(NC(=O)N[C@@H](C)c4ccccc4OC)cc3)c2cc1OC [Example 51, N-{4-[(6,7-Dimethoxy-4-quinolyl)oxy]phenyl}-N′-[(1S)-1-(2-methoxyphenyl)ethyl]urea]",7.6
5,"COc1ccc([C@@H](C)NC(=O)Nc2ccc(Oc3ccnc4cc(OC)c(OC)cc34)cc2)cc1 [Example 54, N-{4-[(6,7-Dimethoxy-4-quinolyl)oxy]phenyl}-N′-[(1R)-1-(4-methoxyphenyl)ethyl]urea]",69.5
6,"COc1cc2nccc(Oc3ccc(NC(=O)N[C@H](C)c4cccc(Br)c4)c(Cl)c3)c2cc1OC [Example 55, N-[(1R)-1-(3-Bromophenyl)ethyl]-N′-{2-chloro-4-[(6,7-dimethoxy-4-quinolyl)oxy]phenyl}urea]",45.4
7,"COc1cc2nccc(Oc3cc(C)c(NC(=O)N[C@H](C)c4cccc(Br)c4)cc3C)c2cc1OC [Example 56, N-[(1R)-1-(3-Bromophenyl)ethyl]-N′-{4-[(6,7-dimethoxy-4-quinolyl)oxy]-2,5-dimethylphenyl}urea]",193
8,"COc1cc2nccc(Oc3ccc(NC(=O)N[C@H](C)c4cccc(Br)c4)cc3Cl)c2cc1OC [Example 57, N-[(1R)-1-(3-Bromophenyl)ethyl]-N′-{3-chloro-4-[(6,7-dimethoxy-4-quinolyl)oxy]phenyl}urea]",128
9,"COc1cc2nccc(Oc3ccc(NC(=O)N[C@H](C)c4cccc(Br)c4)c(C)c3)c2cc1OC [Example 58, N-[(1R)-1-(3-Bromophenyl)ethyl]-N′-{4-[(6,7-dimethoxy-4-quinolyl)oxy]-2-methylphenyl}urea]",80.9
10,"COc1cc(Oc2ccnc3cc(OC)c(OC)cc23)ccc1NC(=O)N[C@H](C)c1cccc(Br)c1 [Example 59, N-[(1R)-1-(3-Bromophenyl)ethyl]-N′-{4-[(6,7-dimethoxy-4-quinolyl)oxy]-2-methoxyphenyl}urea]",20.3
11,"COc1cc2nccc(Oc3ccc(NC(=O)N[C@H](C)c4cccc(Br)c4)c(C(F)(F)F)c3)c2cc1OC [Example 60, N-[(1R)-1-(3-Bromophenyl)ethyl]-N′-[4-[(6,7-dimethoxy-4-quinolyl)oxy]-2-(trifluoromethyl)phenyl]urea]",115
12,"COc1cc2nccc(Oc3ccc(NC(=O)N[C@H](C)c4cccc(Br)c4)cc3OC)c2cc1OC [Example 61, N-[(1R)-1-(3-Bromophenyl)ethyl]-N′-{4-[(6,7-dimethoxy-4-quinolyl)oxy]-3-methoxyphenyl}urea]",44.3
13,"COc1cc2nccc(Oc3ccc(NC(=O)N[C@H](C)c4cccc(Br)c4)c(C)c3C)c2cc1OC [Example 62, N-[(1R)-1-(3-Bromophenyl)ethyl]-N′-{4-[(6,7-dimethoxy-4-quinolyl)oxy]-2,3-dimethylphenyl}urea]",29.4

# The remaining compounds from weak to strong by IC50, led by results:
row,IC50 [nM],Structure (SMILES)
1,7.6,"COc1cc2nccc(Oc3ccc(NC(=O)N[C@H](C)c4ccc(F)cc4)c(C)c3C)c2cc1OC [Example 27, N-{4-[(6,7-Dimethoxy-4-quinolyl)oxy]-2,3-dimethylphenyl}-N′-[(1R)-1-(4-fluorophenyl)ethyl]urea]"
2,6.5,"COc1cc2nccc(Oc3ccc(NC(=O)NC(C)c4ccc(F)cc4)c(F)c3)c2cc1OC (stereo not shown) [Example 28, N-{4-[(6,7-Dimethoxy-4-quinolyl)oxy]-2-fluorophenyl}-N′-[1-(4-fluorophenyl)ethyl]urea]"
3,6.5,"COc1cc2nccc(Oc3ccc(NC(=O)N[C@H](C)c4ccc(F)cc4)cc3F)c2cc1OC [Example 33, N-{4-[(6,7-Dimethoxy-4-quinolyl)oxy]-3-fluorophenyl}-N′-[(1R)-1-(4-fluorophenyl)ethyl]urea]"
4,6.3,"COc1cc2nccc(Oc3ccc(NC(=O)N[C@@H](C)c4ccc(Br)cc4)cc3)c2cc1OC [Example 34, N-[(1S)-1-(4-Bromophenyl)ethyl]-N′-{4-[(6,7-dimethoxy-4-quinolyl)oxy]phenyl}urea]"
5,5.5,"COc1cc2nccc(Oc3ccc(NC(=O)N[C@H](C)c4ccccc4OC)cc3)c2cc1OC [Example 52, N-{4-[(6,7-Dimethoxy-4-quinolyl)oxy]phenyl}-N′-[(1R)-1-(2-methoxyphenyl)ethyl]urea]"
6,3.5,"COc1cc2nccc(Oc3ccc(NC(=O)N[C@@H](C)c4ccc(F)cc4)cc3F)c2cc1OC [Example 32, N-{4-[(6,7-Dimethoxy-4-quinolyl)oxy]-3-fluorophenyl}-N′-[(1S)-1-(4-fluorophenyl)ethyl]urea]"
7,3.1,"COc1cc2nccc(Oc3ccc(NC(=O)N[C@H](C)c4ccc(F)cc4)c(F)c3)c2cc1OC [Example 30, N-{4-[(6,7-Dimethoxy-4-quinolyl)oxy]-2-fluorophenyl}-N′-[(1R)-1-(4-fluorophenyl)ethyl]urea]"
8,2.7,"COc1ccc([C@H](C)NC(=O)Nc2ccc(Oc3ccnc4cc(OC)c(OC)cc34)cc2)cc1 [Example 53, N-{4-[(6,7-Dimethoxy-4-quinolyl)oxy]phenyl}-N′-[(1S)-1-(4-methoxyphenyl)ethyl]urea]"
9,2.3,"COc1cc2nccc(Oc3ccc(NC(=O)N[C@@H](C)c4ccc(F)cc4)c(F)c3)c2cc1OC [Example 29, N-{4-[(6,7-Dimethoxy-4-quinolyl)oxy]-2-fluorophenyl}-N′-[(1S)-1-(4-fluorophenyl)ethyl]urea]"
